Measured values from ChEMBL document CHEMBL4052714, “Synthesis and antibacterial activity of novel 4″-O-(1-aralkyl-1,2,3-triazol-4-methyl-carbamoyl) azithromycin analogs” (2017).
In brackets after ≈: the same amount, converted by molar mass.

How the values were obtained:
Format in all cases: functional
Streptococcus pneumoniae [1] = experiment: Potency index, ratio of clarithromycin MIC to compound MIC for erythromycin-resistant Streptococcus pneumoniae AB11 expressing ermB/mefA gene
Streptococcus pneumoniae [2] = experiment: Antibacterial activity against erythromycin-resistant Streptococcus pneumoniae B1 expressing ermB gene
Staphylococcus aureus [3] = experiment: Antibacterial activity against methicillin-susceptible Staphylococcus aureus ATCC 29213
Streptococcus pyogenes [4] = experiment: Potency index, ratio of clarithromycin MIC to compound MIC for erythromycin-resistant Streptococcus pyogenes isolate R2
Streptococcus pneumoniae [5] = experiment: Antibacterial activity against erythromycin-resistant Streptococcus pneumoniae A22072 expressing mefA gene
Streptococcus pneumoniae [6] = experiment: Potency index, ratio of azithromycin MIC to compound MIC for erythromycin-resistant Streptococcus pneumoniae A22072 expressing mefA gene
Streptococcus pneumoniae [7] = experiment: Antibacterial activity against erythromycin-susceptible Streptococcus pneumoniae ATCC 49619
Streptococcus pyogenes [8] = experiment: Antibacterial activity against erythromycin-resistant Streptococcus pyogenes isolate R2
Staphylococcus aureus [9] = experiment: Potency index, ratio of azithromycin MIC to compound MIC for erythromycin-susceptible Staphylococcus aureus ATCC 25923
Streptococcus pyogenes [10] = experiment: Potency index, ratio of azithromycin MIC to compound MIC for erythromycin-resistant Streptococcus pyogenes isolate R2
Streptococcus pneumoniae [11] = experiment: Potency index, ratio of clarithromycin MIC to compound MIC for erythromycin-resistant Streptococcus pneumoniae A22072 expressing mefA gene
Escherichia coli = experiment: Antibacterial activity against Escherichia coli ATCC 25922
Streptococcus pneumoniae [12] = experiment: Potency index, ratio of clarithromycin MIC to compound MIC for erythromycin-resistant Streptococcus pneumoniae B1 expressing ermB gene
Streptococcus pyogenes [13] = experiment: Antibacterial activity against erythromycin-susceptible Streptococcus pyogenes isolate S2
Streptococcus pneumoniae [14] = experiment: Antibacterial activity against erythromycin-resistant Streptococcus pneumoniae AB11 expressing ermB/mefA gene
Streptococcus pneumoniae [15] = experiment: Potency index, ratio of azithromycin MIC to compound MIC for erythromycin-resistant Streptococcus pneumoniae B1 expressing ermB gene
Staphylococcus aureus [16] = experiment: Antibacterial activity against erythromycin-susceptible Staphylococcus aureus ATCC 25923
Pseudomonas aeruginosa = experiment: Antibacterial activity against Pseudomonas aeruginosa ATCC 27853
Streptococcus pneumoniae [17] = experiment: Potency index, ratio of azithromycin MIC to compound MIC for erythromycin-resistant Streptococcus pneumoniae AB11 expressing ermB/mefA gene
Streptococcus pyogenes [18] = experiment: Potency index, ratio of azithromycin MIC to compound MIC for erythromycin-susceptible Streptococcus pyogenes isolate S2

Compound | Ratio (Streptococcus pneumoniae [1]) | MIC (Streptococcus pneumoniae [2]) | MIC (Staphylococcus aureus [3]) | Ratio (Streptococcus pyogenes [4]) | MIC (Streptococcus pneumoniae [5]) | Ratio (Streptococcus pneumoniae [6]) | MIC (Streptococcus pneumoniae [7]) | MIC (Streptococcus pyogenes [8]) | Ratio (Staphylococcus aureus [9]) | Ratio (Streptococcus pyogenes [10]) | Ratio (Streptococcus pneumoniae [11]) | MIC (Escherichia coli) | Ratio (Streptococcus pneumoniae [12]) | MIC (Streptococcus pyogenes [13]) | MIC (Streptococcus pneumoniae [14]) | Ratio (Streptococcus pneumoniae [15]) | MIC (Staphylococcus aureus [16]) | MIC (Pseudomonas aeruginosa) | Ratio (Streptococcus pneumoniae [17]) | Ratio (Streptococcus pyogenes [18])
CC[C@H]1OC(=O)[C@H](C)[C@@H](O[C@H]2C[C@@](C)(OC)[C@@H](OC(=O)NCc3cn(Cc4ccc(Cl)cc4)nn3)[C@H](C)O2)[C@H](C)[C@@H](O[C@@H]2O[C@H](C)C[C@H](N(C)C)[C@H]2O)[C@](C)(O)C[C@@H](C)CN(C)[C@H](C)[C@@H](OC(=O)NCc2ccc(OC)cc2)[C@]1(C)O | 1024 - 2048 | 0.125 µg/mL (≈ 0.108 µM) | 16 µg/mL (≈ 13.8 µM) | 128 | 0.06 µg/mL (≈ 0.0517 µM) | 32 - 133 | 0.125 µg/mL (≈ 0.108 µM) | 1 µg/mL (≈ 0.861 µM) | 31 | 128 | 32 - 133 | 16 µg/mL (≈ 13.8 µM) | 1024 - 2133 | < 0.002 µg/mL | 0.125 µg/mL (≈ 0.108 µM) | 1024 - 2133 | 0.008 µg/mL (≈ 0.00689 µM) | 8 µg/mL (≈ 6.89 µM) | 1024 - 2048 | –
CC[C@H]1OC(=O)[C@H](C)[C@@H](O[C@H]2C[C@@](C)(OC)[C@@H](OC(=O)NCc3cn(Cc4c(Cl)cccc4Cl)nn3)[C@H](C)O2)[C@H](C)[C@@H](O[C@@H]2O[C@H](C)C[C@H](N(C)C)[C@H]2O)[C@](C)(O)C[C@@H](C)CN(C)[C@H](C)[C@@H](OC(=O)NCc2ccc(OC)cc2)[C@]1(C)O | 1024 - 2048 | 0.125 µg/mL (≈ 0.105 µM) | 16 µg/mL (≈ 13.4 µM) | – | 0.03 µg/mL (≈ 0.0251 µM) | 32 - 133 | 0.06 µg/mL (≈ 0.0502 µM) | 1 µg/mL (≈ 0.837 µM) | – | – | 32 - 133 | 16 µg/mL (≈ 13.4 µM) | 1024 - 2133 | < 0.002 µg/mL | 0.25 µg/mL (≈ 0.209 µM) | 1024 - 2133 | 0.25 µg/mL (≈ 0.209 µM) | 16 µg/mL (≈ 13.4 µM) | 1024 - 2048 | –
CC[C@H]1OC(=O)[C@H](C)[C@@H](O[C@H]2C[C@@](C)(OC)[C@@H](OC(=O)NCc3cn(Cc4ccc(Cl)cc4Cl)nn3)[C@H](C)O2)[C@H](C)[C@@H](O[C@@H]2O[C@H](C)C[C@H](N(C)C)[C@H]2O)[C@](C)(O)C[C@@H](C)CN(C)[C@H](C)[C@@H](OC(=O)NCc2ccc(OC)cc2)[C@]1(C)O | 1024 - 2048 | 0.125 µg/mL (≈ 0.105 µM) | 16 µg/mL (≈ 13.4 µM) | – | 0.125 µg/mL (≈ 0.105 µM) | 32 - 133 | 0.06 µg/mL (≈ 0.0502 µM) | 8 µg/mL (≈ 6.69 µM) | – | – | 32 - 133 | 16 µg/mL (≈ 13.4 µM) | 1024 - 2133 | < 0.002 µg/mL | 0.25 µg/mL (≈ 0.209 µM) | 1024 - 2133 | 0.25 µg/mL (≈ 0.209 µM) | 16 µg/mL (≈ 13.4 µM) | 1024 - 2048 | –
CC[C@H]1OC(=O)[C@H](C)[C@@H](O[C@H]2C[C@@](C)(OC)[C@@H](OC(=O)NCc3cn(Cc4ccc(Cl)cc4Cl)nn3)[C@H](C)O2)[C@H](C)[C@@H](O[C@@H]2O[C@H](C)C[C@H](N(C)C)[C@H]2O)[C@](C)(O)C[C@@H](C)CN(C)[C@H](C)[C@@H](O)[C@]1(C)O | – | 0.5 µg/mL (≈ 0.484 µM) | 16 µg/mL (≈ 15.5 µM) | – | 0.25 µg/mL (≈ 0.242 µM) | 16 | 0.25 µg/mL (≈ 0.242 µM) | 64 µg/mL (≈ 62 µM) | – | – | – | 64 µg/mL (≈ 62 µM) | – | 0.016 µg/mL (≈ 0.0155 µM) | 0.25 µg/mL (≈ 0.242 µM) | 256 | 1 µg/mL (≈ 0.969 µM) | 32 µg/mL (≈ 31 µM) | 1024 | 12.5
CC[C@H]1OC(=O)[C@H](C)[C@@H](O[C@H]2C[C@@](C)(OC)[C@@H](OC(=O)NCc3cn(Cc4ccc(C)cc4)nn3)[C@H](C)O2)[C@H](C)[C@@H](O[C@@H]2O[C@H](C)C[C@H](N(C)C)[C@H]2O)[C@](C)(O)C[C@@H](C)CN(C)[C@H](C)[C@@H](OC(=O)NCc2ccc(OC)cc2)[C@]1(C)O | 1024 - 2048 | 0.125 µg/mL (≈ 0.11 µM) | 32 µg/mL (≈ 28.1 µM) | – | 0.03 µg/mL (≈ 0.0263 µM) | 32 - 133 | 0.125 µg/mL (≈ 0.11 µM) | 8 µg/mL (≈ 7.01 µM) | – | – | 32 - 133 | 16 µg/mL (≈ 14 µM) | 1024 - 2133 | < 0.002 µg/mL | 0.25 µg/mL (≈ 0.219 µM) | 1024 - 2133 | 0.06 µg/mL (≈ 0.0526 µM) | 64 µg/mL (≈ 56.1 µM) | 1024 - 2048 | –
